Measurements as given in US12509460B2 (Skyhawk Therapeutics, Inc., priority 2019, dated 2025).

Assays:
MDR1 = test: Blood-brain-barrier (BBB) penetration potential via MDCK-MDR1 permeability assay; settings: dog, MDCK-MDR1, pH 7.4, MDCK-MDR1: Efflux, efflux ratio
Protocol: (§1) Example A13: Assessment of Blood-Brain-Barrier (BBB) Penetration Potential Via an MDCK-MDR1 Permeability Assay
(§2) The permeability of compounds is assessed for BBB penetration potential by use of an MDCK-MDR1 assay (Catalog EA203) performed by Absorption Systems, Exton PA.
(§3) Experimental Procedure: MDR1-MDCK cell monolayers are grown to confluence on collagen-coated, microporous membranes in 12-well assay plates. The permeability assay buffer is Hanks' balanced salt solution containing 10 mM HEPES and 15 mM glucose at a pH of 7.4. The buffer in the receiver chamber also contained 1% bovine serum albumin. The dosing solution concentration is 5 μM of test article in the assay buffer. Cell monolayers are dosed on the apical side (A-to-B) or basolateral side (B-to-A) and incubated at 37° C. with 5% CO2 in a humidified incubator. Samples are taken from the donor and receiver chambers at 120 minutes. Each determination is performed in duplicate. The flux of lucifer yellow is also measured post-experimentally for each monolayer to ensure no damage is inflicted to the cell monolayers during the flux period. All samples are assayed by LC-MS/MS using electrospray ionization.
(§4) The apparent permeability (Papp) and percent recovery are calculated as follows:
(§5) Analytical Method: Liquid Chromatography. Column: Waters ACQUITY UPLC BEH Phenyl 30 ×2.1 mm, 1.7 μm; M.P. Buffer. 25 mM ammonium formate buffer, pH 3.5; Aqueous Reservoir (A): 90% water, 10% buffer, Organic Reservoir (B): 90% acetonitrile, 10% buffer, Flow Rate: 0.7 mL/minute; Gradient Program:
(§6) • Total Run Time: 1.00 minute • Autosampler. 2 μL injection volume • Wash1: water/methanol/2-propanol:1/1/1; with 0.2% formic acid • Wash2: 0.1% formic acid in water • Brain Penetration • Potential Classification: A-B Papp≥3.0 and Efflux Ratio <3.0: High • A-B Papp≥3.0 and 10≥Efflux Ratio >3.0: Moderate • A-B Papp≥3.0 and Efflux Ratio≥10: Low • A-B Papp<3.0: Low

MDR1 (P-gp) = test: as above; settings: dog; for Papp A→B at 120 min, 5 μM: MDCK-MDR1, pH 7.4, MDCK-MDR1: Papp A-B, A-B direction; for Papp B→A at 120 min, 5 μM: MDCK-MDR1, pH 7.4, MDCK-MDR1: Papp B-A, B-A direction
Protocol: as §1, §2, §3, §4, §5, §6

[1] = system: MDR1-MDCK cell monolayers; test: as above; settings: for MDCK-MDR1: % Recov A-B: A-B direction; for MDCK-MDR1: % Recov B-A: B-A direction
Protocol: as §1, §2, §3, §4, §5, §6

[2] = system: mHTT protein in GM04724 (CAG 70/20) Huntington's disease patient lymphoblast cells; test: mHTT protein assay, 2B7-MW1 assay via Mesoscale Discovery (MSD); type: cell-based, human; settings: GM04724 Huntington's disease patient lymphoblasts
How it was run: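 Signal from the 2B7-MW1 antibody pair on MSD, rising with polyQ length and smaller HTT fragments, measured mHTT after 48 h compound exposure (0.6 nM–10 μM) in GM04724 cells. A parallel replicate plate gave CellTiter Glo viability.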

[3] = system: SMN protein in spinal muscular atrophy (SMA) patient fibroblasts (GM03813, Coriell); test: SMN protein assay, Mesoscale Discovery (MSD); type: cell-based, human; settings: SMA patient fibroblasts GM03813, 48 hours, MSD; read-out: SMN2 protein EC50
How it was run: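 Absolute SMN levels were quantified by MSD against an SMN protein standard curve (1 μg/ml to 19.5 pg/ml) run on each plate. Samples were lysates of GM03813 patient fibroblasts (7000 cells/well) treated 48 hours with compound doses from 2.5 μM down to 0.6 nM.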

[4] = Quantitative splicing assay (HTT), qPCR; type: cell-based, human; settings: Homo sapiens, GM04724, 24 h, GM04724 lymphoblasts, qPCR, read-out: HTT Splicing: E49-50 EC50
How it was run: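 TaqMan qPCR on cell-lysate cDNA quantifies cryptic-exon inclusion from HTT intron 49. Lymphoblasts plated at 50,000 cells/well had received compound for 24 h, 0.15 nM-2.5 uM range, 0.1% DMSO.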

[5] = system: SMN FL and SMN Δ7 in spinal muscular atrophy (SMA) patient fibroblasts (GM03813, Coriell); test: Quantitative splicing assay (SMN), qPCR; type: cell-based, human; settings: Homo sapiens, Fibroblast, 24 h, SMA patient fibroblasts GM03813, 24 h, qPCR; read-out: SMN2 Splicing FL EC50
Protocol: Spinal muscular atrophy (SMA) patient fibroblasts (GM03813, Coriell) are plated in 96-well plates at 50,000 cells/well. […] Treated cells are lysed and cDNA synthesized using the Fast Advanced Cells-to-Ct kit (Thermofisher A35378) according to the manufacturer's instructions. 2 μL of each cDNA are used in qPCR reactions. […] Reactions are run in a Quant Studio 6 qPCR instrument with default settings.

Compound	efflux ratio at 120 min, 5 μM (MDR1)	Papp A→B at 120 min, 5 μM (MDR1 (P-gp))	Papp B→A at 120 min, 5 μM (MDR1 (P-gp))	MDCK-MDR1: % Recov A-B [1]	MDCK-MDR1: % Recov B-A [1]	EC50 [2]	EC50 [3]	EC50 [4]	EC50 [5]
CCN(c1ccc(-c2ccc(-c3cn[nH]c3)cc2O)nn1)[C@@H]1C[C@H]2CC[C@H](N2)[C@@H]1F [Compound 12A, 2-(6-(ethyl((1S,2S,3R,5R)-2-fluoro-8-azabicyclo[3.2.1]octan-3-yl)amino)pyridazin-3-yl)-5-(1H-pyrazol-4-yl)phenol]	27	0.89 ×10⁻⁶ cm/s	23.6 ×10⁻⁶ cm/s	72%	74%	16 to 50 nM	16 to 50 nM	51 to 100 nM	101 to 500 nM
CCN(c1ccc(-c2ccc(-c3cn[nH]c3)cc2O)nn1)[C@H]1C[C@@H]2CC[C@@H](N2)[C@H]1F [Compound 12B, 2-(6-(ethyl((1R,2R,3S,5S)-2-fluoro-8-azabicyclo[3.2.1]octan-3-yl)amino)pyridazin-3-yl)-5-(1H-pyrazol-4-yl)phenol]	43	0.7 ×10⁻⁶ cm/s	30.1 ×10⁻⁶ cm/s	57%	52%	0.01 to 15 nM	0.01 to 15 nM	0.01 to 15 nM	0.01 to 15 nM
CN(c1ccc(-c2ccc(-c3cnn(C)c3)cc2O)nn1)[C@@H]1C[C@H]2CCC[C@H](N2)[C@H]1F [Compound 14A, 2-(6-(((1S,2R,3R,5R)-2-fluoro-9-azabicyclo[3.3.1]nonan-3-yl)(methyl)amino)pyridazin-3-yl)-5-(1-methyl-1H-pyrazol-4-yl)phenol]	14	3 ×10⁻⁶ cm/s	42.4 ×10⁻⁶ cm/s	59%	83%	16 to 50 nM	0.01 to 15 nM	16 to 50 nM	51 to 100 nM
CN(c1ccc(-c2ccc(-c3cnn(C)c3)cc2O)nn1)[C@H]1C[C@@H]2CCC[C@@H](N2)[C@@H]1F [Compound 14B, 2-(6-(((1R,2S,3S,5S)-2-fluoro-9-azabicyclo[3.3.1]nonan-3-yl)(methyl)amino)pyridazin-3-yl)-5-(1-methyl-1H-pyrazol-4-yl)phenol]	11	2.95 ×10⁻⁶ cm/s	32.1 ×10⁻⁶ cm/s	54%	91%	0.01 to 15 nM	0.01 to 15 nM	0.01 to 15 nM	51 to 100 nM
Cc1cnc(-c2ccc(-c3ccc(N(C)[C@@H]4C[C@H]5CCC[C@H](N5)[C@@H]4F)nn3)c(O)c2)o1 [Compound 16A, 2-(6-(((1S,2S,3R,5R)-2-fluoro-9-azabicyclo[3.3.1]nonan-3-yl)(methyl)amino)pyridazin-3-yl)-5-(5-methyloxazol-2-yl)phenol]	7	2.31 ×10⁻⁶ cm/s	15.2 ×10⁻⁶ cm/s	31%	41%	16 to 50 nM	101 to 500 nM	16 to 50 nM	101 to 500 nM
Cc1cnc(-c2ccc(-c3ccc(N(C)[C@H]4C[C@@H]5CCC[C@@H](N5)[C@H]4F)nn3)c(O)c2)o1 [Compound 16B, 2-(6-(((1R,2R,3S,5S)-2-fluoro-9-azabicyclo[3.3.1]nonan-3-yl)(methyl)amino)pyridazin-3-yl)-5-(5-methyloxazol-2-yl)phenol]	16	1.16 ×10⁻⁶ cm/s	18.7 ×10⁻⁶ cm/s	24%	26%	16 to 50 nM	0.01 to 15 nM	0.01 to 15 nM	16 to 50 nM
CN(c1ccc(-c2cc(F)c(-c3ccoc(=O)c3)cc2O)nn1)[C@@H]1C[C@H]2CC[C@H](N2)[C@@H]1F [Compound 17A, 4-(2-fluoro-4-(6-(((1S,2S,3R,5R)-2-fluoro-8-azabicyclo[3.2.1]octan-3-yl)(methyl)amino)pyridazin-3-yl)-5-hydroxyphenyl)-2H-pyran-2-one]	19	2.08 ×10⁻⁶ cm/s	39.2 ×10⁻⁶ cm/s	57%	81%	0.01 to 15 nM	0.01 to 15 nM	0.01 to 15 nM	0.01 to 15 nM
